Data taken from patent EP0272223A1, “4-Oxo-1,3-benzodioxane derivative” (FARMACEUTICI CABER S.p.A., priority 1987, dated 1988).
Where two headings read alike, the source gives them in different places.

Experiments:
[1] = test system: gastric mucosa; type: in vivo, rats
Experimental: The action of equimolecular doses of TF 914 and acetylsalicylic acid on gastric mucosa was evaluated by administering the products by the oral route to rats fasted for 18 hours at least.

[2] = test system: Carrageenin oedema in the rat; assay: Antiinflammatory activity - carrageenin oedema test (Winter method); type: in vivo; details: for PAW/VOLUME ml/10 - M ± ES 2h / PAW/VOLUME ml/10 - M ± ES 4h / PAW/VOLUME ml/10 - M ± ES 6h / PAW/VOLUME ml/10 - M ± ES 8h / PAW/VOLUME ml/10 - M ± ES 24h / PAW/VOLUME ml/10 - M ± ES Basal: equimolecular doses p.o. (ASA 100 mg/kg, TF 914 180 mg/kg) 30 minutes before carrageenin; for PAW/VOLUME ml/10 - M ± ES Basal: 10 animals; for AREAS Δ % M ± ES: area of the oedema curve; for AREAS Δ % M ± ES / AREAS inhib. vs. contr.: p.o. (ASA 100 mg/kg, TF 914 180 mg/kg); for AREAS inhib. vs. contr.: inhibition of area vs. control
Experimental: Antiinflammatory activity of TF 914 was evaluated by means of the carrageenin oedema test in the rat, according to the method of Winter, Rissly, Ness (Proc. Soc. Exp. Biol. Med., 1962, 111, 544), in comparison with acetylsalicylic acid at equimolecular doses.
The compound under test and acetylsalicylic acid, as a comparison, were administered by the oral route 30 minutes before subplantar injection of carrageenin. […]
The obtained results, which are shown in table 2, evidence the marked antiinflammatory activity of TF 914, said activity being higher than that of acetylsalicylic acid in equimolecular doses, under the experimental conditions used.

[3] = test system: Phenylquinone writhing in the mouse; assay: Analgesic activity - phenylquinone writhing test (Siegmund method); type: in vivo; details: for Mean number of writhings: equimolecular doses os (acetylsalicylic acid 100 mg/kg, TF 914 180 mg/kg) 30 min. before i.p. phenylquinone; for N. animals showing writhing / % inhib. vs. contr.: os (acetylsalicylic acid 100 mg/kg, TF 914 180 mg/kg); for % inhib. vs. contr.: writhings
Experimental: The analgesic activity was studied by the quinone writhing test in the mouse according to the method of Siegmund E. et al. (Proc. Soc. Exp. Biol. Med., 1957, 95, 729). TF 914 was orally administered, in comparison with acetylsalicylic acid, in equimolecular doses. The two drugs were administered 30 min. before intraperitoneal injection of phenylquinone.

[4] = test system: carrageenin induced pleuritis; assay: Antiinflammatory activity - carrageenin induced pleuritis test (Vinegar method); type: in vivo, rat; details: 5 h; for EXUDATE VOLUME ml: 100 mg/kg p.o. 1 hour before carrageenin; for N. LEUKOCYTES % inhib. vs. contr. / EXUDATE VOLUME % vs.contr. / N. LEUKOCYTES ml: 100 mg/kg p.o.; for EXUDATE VOLUME % vs.contr.: protection on exudate volume; for N. LEUKOCYTES ml: total number of leukocytes in pleuric exudate
Experimental: The antiinflammatory activity was tested by the carrageenin induced pleuritis test in the rat, according to the method of Vinegar R. et al. (Proc. Soc. Exp. Biol. Mod., 1973, 143, 3).
TF 914 and phenylbutazone as a control were administered orally in equiponderal doses, 1 hour before the carrageenin injection in the pleuric cavity.
Five hours later the animals were killed, and volume of the pleuric exudate and total number of leukocytes therein were evaluated.

[5] = Pharmacokinetics after oral administration, HPLC; type: in vivo; details: rat, equimolecular doses, vs. acetylsalicylic acid and Thiola
Experimental: The pharmakinetics studies on TF 914 were carried out in the rat, in comparison with acetylsalicylic acid and Thiola®, after oral administration of equimolecular doses of the three compounds.
Measurements were performed by HPLC.

[6] = Acute toxicity by single administration (LD50, Litchfield and Wilcoxon); details: in vivo
Experimental: Toxicity by single administrations of TF 914 was studied in the mouse and the rat, by oral and intraperitoneal route.
LD₅₀ values were calculated according to the method of Litchfield and Wilcoxon (J. Pharm. Exp. Therap., 1949, 96, 99).
The obtained results, which are summarized in table 1, evidenced that TF 914 has no toxicity.

[7] = test system: bronchosecretolytic activity; assay: Bronchosecretolytic activity (Mawatari method); type: in vivo, male Wistar rat; details: equimolecular doses os (TF 914 360 mg/kg, Thiola 200 mg/kg); 10 animals
Experimental: The bronchosecretolytic activity was evaluated in the male Wistar rat by oral administration of TF 914 ac cording to the method of Mawatari (Mawatari H. Kagoshima Daigaku Igaku-Zasshi- 27, 561, 1976), in comparison with Thiola®, in equimolecular doses.

CC(=O)Oc1ccccc1C(=O)O [ASA, Acetylsalicylic acid, reference compound]
Ulcer size (mm) x ± es ([1]; equimolecular doses os (ASA 100 mg/kg, TF 914 180 mg/kg), rats fasted at least 18 hours, 6 hours after treatment): 3.6 ± 1.34 mm
gastro-injuring action (in words) ([1]; examination of the mucosa 6 hours after oral treatment, equimolecular doses): marked gastro-injuring effects
PAW/VOLUME ml/10 - M ± ES 2h [2]: 58,3 ± 2,5 ml/10
PAW/VOLUME ml/10 - M ± ES 4h [2]: 66,0 ± 3,0 ml/10
PAW/VOLUME ml/10 - M ± ES 6h [2]: 59,3 ± 1,7 ml/10
PAW/VOLUME ml/10 - M ± ES 8h [2]: 52,8 ± 2,6 ml/10
PAW/VOLUME ml/10 - M ± ES 24h [2]: 45,3 ± 1,5 ml/10
PAW/VOLUME ml/10 - M ± ES Basal [2]: 43,1 ± 1,5 ml/10
AREAS Δ % M ± ES [2]: 161,5 ± 20,9%
AREAS inhib. vs. contr. [2]: 37,0
Mean number of writhings [3]: 1.4 ± 0.9
N. animals showing writhing [3]: 3/10
% inhib. vs. contr. [3]: 89.06%

CCCCC1C(=O)N(c2ccccc2)N(c2ccccc2)C1=O [PHENYLBUTAZONE, phenylbutazone, reference compound]
EXUDATE VOLUME ml [4]: 1,75 ±2,25 ml
N. LEUKOCYTES % inhib. vs. contr. [4]: 36,7%
EXUDATE VOLUME % vs.contr. [4]: 28,9%
N. LEUKOCYTES ml [4]: 8,52 ±1,27 ml

CC(SC1(C)OC(=O)c2ccccc2O1)C(=O)NCC(=O)O (stereo not drawn) [TF 914, 2-methyl-2[1-(carboxy-methyl-amino-carbonyl)ethyl]thio-4-oxo-benzodioxane-1.3]
gastro-injuring action (in words) ([1]; rat, in vivo, po): substantially has no gastro-injuring action
bioavailability (in words) [5]: better bioavailability
persistence in blood stream (in words) [5]: remain in blood stream for longer periods
EXUDATE VOLUME ml [4]: 1,79 ±0,25 ml
N. LEUKOCYTES % inhib. vs. contr. [4]: 19.5%
N. LEUKOCYTES % inhib. vs. contr. ([4]; listed as MR 914): 19,5%
EXUDATE VOLUME % vs.contr. ([4]; 100 mg/kg): 27.2%
EXUDATE VOLUME % vs.contr. ([4]; listed as MR 914, 100 mg/kg): 27,2%
N. LEUKOCYTES ml [4]: 10,84 ±1,32 ml
PAW/VOLUME ml/10 - M ± ES 2h [2]: 53,3 ± 1,6 ml/10
PAW/VOLUME ml/10 - M ± ES 4h [2]: 60,4 ± 2,0 ml/10
PAW/VOLUME ml/10 - M ± ES 6h [2]: 61,8 ± 2,7 ml/10
PAW/VOLUME ml/10 - M ± ES 8h [2]: 54,5 ± 2,8 ml/10
PAW/VOLUME ml/10 - M ± ES 24h [2]: 45,1 ± 1,5 ml/10
PAW/VOLUME ml/10 - M ± ES Basal [2]: 42,8 ± 0,7 ml/10
AREAS Δ % M ± ES [2]: 145,4 ± 20,4%
AREAS inhib. vs. contr. [2]: 43,3
LD50 ([6]; ip, Mouse): > 3000 mg/kg
LD50 ([6]; po, Mouse, os): > 3000 mg/kg
LD50 ([6]; po, Rat, os): > 3000 mg/kg
% increase of FlNa in comparison with controls [7]: 35.6%
Mean number of writhings [3]: 1.8 ± 1.1
N. animals showing writhing [3]: 3/10
% inhib. vs. contr. [3]: 85.93%

CC(S)C(=O)NCC(=O)O (stereo not drawn) [Thiola®, reference compound]
% increase of FlNa in comparison with controls [7]: 33.4%
